{"source": "paper PMC11009648", "about": "“Development of an orally bioavailable mSWI/SNF ATPase degrader and acquired mechanisms of resistance in prostate cancer” (Proceedings of the National Academy of Sciences of the …, 2024)", "key": {"[1]": {"system": "panel of human cancer or normal cell lines", "assay": "Cell-TiterGlo viability assays in a panel of cell lines", "type": "cell-based", "conditions": "5 d of treatment; sensitive: IC50 < 100 nM, resistant: IC50 > 100 nM", "experimental": "Cells were seeded onto 96-well plates in appropriate culture media and allowed to adhere overnight prior to treatment. The next day, a nine-point serial dilution of the compounds was prepared and added to the plates. After treatment, the cells were then incubated for an additional 5 d. On the last day of treatment, the CellTiter-Glo cell viability assay (Promega) was then executed in accordance with the manufacturer’s guidelines. The signal (luminescence) from each well was determined using an Infinite M1000 Pro plate reader (Tecan). Relative viability was determined by dividing the signal from each well by the average of the control condition in each experiment. Finally, the data were analyzed and plotted using GraphPad Prism."}, "[2]": {"system": "VCaP castration-resistant tumor model", "assay": "CRPC-VCaP xenograft efficacy study", "type": "in vivo", "experimental": "Six-week-old CB17 (male) SCID mice were obtained from the breeding colony at the U-M. For all studies, tumors were measured two or three times per week using digital calipers, and tumor volumes were calculated using the formula (π/6) (L × W2), where L is length and W is width of the tumor. At study endpoint, mice were killed, and tumors were extracted and weighed. […] Once tumors grew to a palpable size (~400 mm^3), the mice were physically castrated. Once those tumors regained their precastration size, mice were then randomized and treated with either 15 mg/kg AU-24118 or vehicle by oral gavage 3 d per week with or without enzalutamide (10 mg/kg) by oral gavage 5 d per week for 4 wk.\nIHC was performed on 4 µm formalin-fixed, paraffin-embedded tissue sections using BRG1 (SMARCA4), AR, FOXA1, ERG and C-Myc. The IHC process was performed on the Ventana ULTRA automated slide staining system using the Omnimap and Ultraview Universal DAB detection kit. The antibody details are provided in SI Appendix, Table S1. The following commercial kits from Roche-Ventana Medical System were used: Discovery CC1 (Cat No. 950-500), Discovery CC2 (Cat No. 950-123), OptiView Universal DAB Detection Kit (Cat No. 760-700), and OmniMap Universal DAB Detection Kit (Cat No. 760-149).\nThe TUNEL and In Situ Cell Death Detection Kits (TMR Red #12156792910; Roche Applied Science) were used to examine apoptosis, following the manufacturer’s instructions. Briefly, fixed sections were permeabilized with Triton X-100 and then washed in phosphate-buffered saline. Labeling was carried out at 37 °C for 60 min by addition of a reaction buffer that contained enzymes. A Zeiss Axiolmager M1 microscope was used to obtain images."}, "[3]": {"system": "SMARCA4, PBRM1 and SMARCA2 in 22Rv1-AUR-3 xenografts", "assay": "22Rv1-AUR-3 xenograft pharmacodynamics study", "conditions": "5 d; AU-24118 15 mg/kg oral gavage three times per week; zosuquidar 40 mg/kg i.p.", "quoted_text": "Lysates were prepared using radioimmunoprecipitation assay buffer (Thermo Fisher) with cOmpleteTM protease inhibitor cocktail tablets (Sigma-Aldrich) added. Total protein for each sample was determined using the DC Protein Assay (Bio-Rad) according to the manufacturer’s instructions. A standardized quantity of protein was resolved using NuPAGE Tris-Acetate Protein Gel (3 to 8%) (Thermo Fisher) or NuPAGE Bis-Tris Protein Gel (4 to 12%) (Thermo Fisher) and probed with primary antibodies as indicated. Following incubation with secondary antibodies conjugated with horseradish peroxidase, membranes were imaged on an Odyssey Fc Imager (LiCOR Biosciences).\nFor the 22Rv1-AUR-3 model, bilateral subcutaneous dorsal flank tumors were established by injecting 1 × 10^6 cells suspended in a 1:1 mixture of serum-free medium and Matrigel (BD Biosciences). Once tumors reached an average volume of 100 mm^3, mice were randomized and treated with either 60 mg/kg AU-15330 by retro-orbital vein injection 3 times every other day and with or without 10 mg/kg, 20 mg/kg, or 40 mg/kg of zosuquidar by intraperitoneal injection daily for 5 d per week. […] Animals harboring tumors approaching that size were immediately killed. All in vivo studies were approved by the U-M IACUC."}, "[4]": {"assay": "In vivo pharmacokinetics in mice", "conditions": "mouse, plasma, oral, dose escalation (Fig. 1G)"}, "[5]": {"system": "mutant forms of SMARCA4 in HEK293 cells", "assay": "Immunoblot of overexpressed flag-tagged mutant SMARCA4 in HEK293 cells", "type": "cell-based, human", "conditions": "24 h treatment", "description": "GFP-SMARCA4 (Addgene, 65391) was used for the SMARCA4 mutation clone. The pLVX-TetOne-Puro-hAXL (Addgene, 124797) backbone was used as a starting point prior to undergoing a series of modifications. The endogenous target gene was removed, and a multiple cloning site (MCS) was inserted downstream of the endogenous promoter. Custom gblocks containing Flag-tagged WT SMARCA4 were synthesized (Integrated DNA Technologies, IDT) and inserted into the MCS. Subsequently, custom gblocks containing SMARCA4-N1540S, SMARCA4-I1551del, or SMARCA4-F1485S were inserted to replace the respective portion of WT SMARCA4. Finally, the TRE3G promoter was replaced with hPGK.\nHEK293 cells were seeded overnight and transfected with Lipofectamine 3,000 (Thermo Fisher) according to the manufacturer’s protocol. Media were changed 8 h post transfection and incubated for 48 h prior to conducting further analyses."}, "[6]": {"assay": "In vivo pharmacokinetics in mice", "conditions": "plasma; for Cmax: read-out: Cmax/C0", "description": "All experimental procedures relating to animal care, handling, and treatment were approved by the Institutional Animal Ethics Committee of Aurigene Oncology Ltd. based on the Committee for Control and Supervision of Experiments on Animals guidelines. Animals were included for experimentation after 1 wk of acclimatization to standard laboratory conditions and were provided with reverse osmosis-treated water and rodent pellet diet ad libitum.\nThe pharmacokinetic profile of AU-24118 was studied in both mice and rats. For assessment of oral bioavailability, AU-24118 was administered by intravenous (i.v.) and oral (p.o.) routes at 1 mg/kg and 30 mg/kg doses, respectively (n = 3). For the oral arm, AU-24118 was administered as a solution formulation in 10% PEG200, 50% of 20% D-α-Tocopherol polyethylene glycol 1000 succinate and 40% of 1% Tween-80 in water while AU-24118 was formulated in 2% DMA and 10% HPβCD in saline (qs) for the intravenous administration.\nConcentrations of AU-24118 were determined in plasma samples using a nonvalidated (fit for purpose) LC–MS/MS method in positive Multiple Reaction Monitoring mode with transition pair of m/z: 633.11→344.00. Either Carbamazepine (with a transition pair of m/z: 237.07→194.10) or Telmisartan (with a transition pair of m/z: 515.16→276.00) were used as internal standards. Sample processing was carried out by protein precipitation followed by evaporation method. Compound concentrations were calculated using Analyst® software 1.7.2 with linear/quadratic regression algorithm (with 1/×2 weighting factor) over a quantification range of 1 ng/mL to 2,500 ng/mL with the low and high ends of this range defining the lower limit of quantitation and upper limit of quantitation, respectively."}, "[7]": {"conditions": "after 5 d of treatment, 15 mg/kg"}, "[8]": {"conditions": "mouse, iv, CD1 Mice, I.V. 1mg/kg"}, "[9]": {"conditions": "mouse, po, CD1 Mice, P.O. 30mg/kg"}, "[10]": {"conditions": "mouse, mice, oral, 10mg/kg, dose escalation (Fig. 1G)"}, "[11]": {"conditions": "mouse, mice, oral, 30mg/kg, dose escalation (Fig. 1G)"}}, "note": "Entries after “also recorded” stand apart in the source; their conditions may differ. Where two headings read alike, the source gives them in different places."}
{"smiles": "Nc1nnc(-c2ccccc2O)cc1-c1ccc(N2CCC(N3CCC(c4ccc(OC5CCC(=O)NC5=O)cc4)CC3)CC2)cc1", "note": "(stereo not shown) [AU-24118]", "values": [{"measurement": "cell viability preference across diverse cell lines", "setting": "[1]", "result": "notable preference for inhibiting transcription factor–addicted cancer cells"}, {"measurement": "body weight changes", "setting": "[2]; CRPC VCaP xenograft mice, throughout the treatments", "result": "no significant body weight changes"}, {"measurement": "apoptosis in tumors (cleaved PARP, TUNEL)", "setting": "[2]; [7]", "result": "induced apoptosis"}, {"measurement": "downregulation of direct targets (SMARCA2, SMARCA4, PBRM1) and lineage proteins (AR, ERG, C-Myc, PSA) in tumors, Western blot", "setting": "[2]; [7]", "result": "robust downregulation"}, {"measurement": "tumor response", "setting": "[2]; castrated CB17 SCID mice, enzalutamide 10 mg/kg oral gavage five times weekly, AU-24118 15 mg/kg oral gavage three times weekly", "result": "regression in every tumor; also recorded: regressed every tumor in the cohort"}, {"measurement": "degradation of target proteins in tumors, immunoblot", "setting": "[3]", "result": "mild degradation of its target proteins"}, {"measurement": "AUC(0-t)", "setting": "[4]; 10mg/kg", "result": 4930, "unit": "ng·h/mL"}, {"measurement": "AUC(0-t)", "setting": "[4]; 100mg/kg", "result": 32200, "unit": "ng·h/mL"}, {"measurement": "Cmax", "setting": "[4]; 100mg/kg, read-out: Cmax/C0", "result": 1930, "unit": "ng/mL"}, {"measurement": "degradation of overexpressed mutant SMARCA4, immunoblot", "setting": "[5]", "result": "resistant to degradation"}, {"measurement": "bioavailability", "setting": "[6]; CD1, mouse, oral, mice, i.v. 1 mg/kg, p.o. 30 mg/kg, read-out: Oral bioavailability (%F)", "result": 33.4, "unit": "%"}, {"measurement": "AUC(0-inf)", "setting": "[6]; [8]", "result": 1680, "unit": "ng·h/mL"}, {"measurement": "AUC(0-t)", "setting": "[6]; [8]", "result": 1630, "unit": "ng·h/mL"}, {"measurement": "half-life", "setting": "[6]; mouse, iv, CD1 Mice, I.V. 1mg/kg, read-out: Beta t1/2 (converted)", "result": 4.76, "unit": "h"}, {"measurement": "clearance", "setting": "[6]; mouse, iv, CD1 Mice, I.V. 1mg/kg, read-out: CI (Clearance)", "result": 10, "unit": "mL/min/kg"}, {"measurement": "Cmax", "setting": "[6]; [8]", "result": 443, "unit": "ng/mL"}, {"measurement": "Vd", "setting": "[6]; mouse, iv, CD1 Mice, I.V. 1mg/kg, read-out: Vdss", "result": 3.3, "unit": "L/kg"}, {"measurement": "AUC(0-t)", "setting": "[6]; [9]", "result": 16300, "unit": "ng·h/mL"}, {"measurement": "Cmax", "setting": "[6]; [9]", "result": 1030, "unit": "ng/mL"}, {"measurement": "Tmax", "setting": "[6]; [10]", "result": 6, "unit": "h"}, {"measurement": "Cmax", "setting": "[6]; [10]", "result": 345, "unit": "ng/mL"}, {"measurement": "AUC(0-t)", "setting": "[6]; [11]", "result": 14700, "unit": "ng·h/mL"}, {"measurement": "Tmax", "setting": "[6]; [11]", "result": 3, "unit": "h"}, {"measurement": "Cmax", "setting": "[6]; [11]", "result": 1190, "unit": "ng/mL"}, {"measurement": "Tmax", "setting": "[6]; mouse, mice, oral, 100mg/kg, dose escalation (Fig. 1G)", "result": 4, "unit": "h"}]}
